Entries after “also recorded” stand apart in the source; their conditions may differ. Read-outs that look alike come from different tables or passages of the source.
What was measured:
[1] = test system: HIVADA; assay: HIV replication in primary human macrophages, HIV p24 ELISA; assay type: cell-based, Human immunodeficiency virus-1 (HIV); conditions: for inhibition at 100 µM: Human immunodeficiency virus 1, Macrophage
Excerpt: Monocyte isolation and macrophage culture: Human monocytes were isolated from leukopaks obtained from the New York Blood Center. Peripheral blood mononuclear cells (PBMCs) were isolated by differential centrifugation using a Ficoll gradient (GE Healthcare, Piscataway, N.J.) and CD14 positive cells were isolated from PBMCs using CD14 monoclonal antibodies that were then bound by magnetic nanoparticles and separated using a magnetic field (Stem Cell Technologies, Vancouver, BC, Canada). Isolated CD14 positive cells were cultured adherently for 6 days in the presence of 10 ng/ml macrophage-colony stimulating factor (PeproTech, Rocky Hill, N.J.) in RPMI 1640 with 10% FBS, 5% human AB serum, 1% P/S, and 10 mM HEPES to differentiate the cells into macrophages.
(§1) HIV replication: After 6 days in culture, macrophages in 48-well plates at a density of 10^5 cells per well were inoculated with 2-20 ng/ml HIVADA, 2 ng/ml HIVYU-2, or 0.2 ng/ml HIVBaL for 24 hours in the presence or absence of purinergic receptor inhibitors. 5 wells were inoculated per condition. After 24 hours, cells were washed with PBS and then cultured with media. Supernatants were collected and medium was changed every 24 hours until 7 days post inoculation (d.p.i.). When the inhibitors oATP, A-740003, MRS 2179, NF 279, BBG, or suramin, were used, they were added when the medium was changed every 24 hours. Viral replication was analyzed by HIV p24 ELISA (Advanced Bioscience Laboratories, Kensington, Md.) according to the manufacturer's instructions

[2] = test system: β-lactamase containing HIVBaL; assay: HIV Entry Assay (β-lactamase / CCF2-AM) in primary human macrophages; assay type: cell-based, Human immunodeficiency virus-1 (HIV); conditions: for reduction in viral entry (percentage of cells with viral entry) relative to HIV only: 100 μM, 4 hours, MOI 0.001-0.01, oATP N=5, others N=3
Protocol: HIV Entry Assay: Primary human macrophages were cultured in black 96-well plates with a clear bottom (Corning Inc., Corning, N.Y.) at a density of 43,000 cells per well. After 7-8 days in culture, cells were inoculated with β-lactamase containing HIVBaL at a multiplicity of infection (MOI) of 0.01, 0.005, or 0.001 in the presence or absence of the purinergic receptor inhibitors oATP, NF 279, A-740003, or MRS 2179 for 4 hours. Beta-lactamase containing HIVBaL was generated as described previously (27). Briefly, HEK-293T cells were transfected using calcium phosphate with two plasmids, one containing the HIVBaL genome, pWT/BaL (NIH repository), the other containing β-lactamase fused to REV vpr, pMM310 (NIH repository). Cells were transfected for 16 hours and then supernatant was collected 24 and 48 hours following transfection. […] Viral stocks were generated by sucrose gradient purification of the transfection supernatants.
Alter viral inoculation of primary human macrophages, cells were washed with phenol red-free DMEM (Gibco) then loaded with CCF2-AM for 6 hours at room temperature using the GeneBLAzer In Vivo Detection Kit (Invitrogen, Carlsbad, Calif.). CCF2-AM fluoresces green due to an internal fluorescence resonance energy transfer, but when cleaved by β-lactamase, this interaction is lost and the molecule fluoresces blue. Cells were imaged using an Olympus IX70 with a Plan 10×/0.25 air objective lens. Images were collected at room temperature through an Olympus E-620LS camera attached to the microscope through an OM adapter MF-1. Images were collected directly onto a memory card and there was no image processing following image collection. Images were collected for 8 fields in 4 separate wells per condition and percentage of cells positive for viral entry was determined by counting the number of blue cells (cells that virus had entered) as compared to the total number of blue and green cells.

[3] = test system: Macrophages; assay: Cell viability of macrophages, live/dead assay; assay type: cell-based; conditions: 100 μM, 24 hours
Excerpt: Cells were imaged using a Zeiss AxioObserver.D1 with an LD Plan-Neofluar 20×/0.4 air objective lens. Images were collected at room temperature through a Zeiss AxioCam MRm camera using Axiovision software.

[4] = molecular target: T1, Panx1 hemichannels (Homo sapiens, UniProt Q96RD7); assay: HIV-induced ethidium (Etd) dye uptake, time lapse fluorescence imaging, in PBMCs and CD4+ T lymphocytes; assay type: cell-based; parameters: endogenous in cells; host or cells: primary human PBMCs and purified CD4+ T lymphocytes from leukopacks (New York Blood Center); conditions: 5 min and 72 h; for Etd uptake (rate) induced by the virus: PBMCs exposed to HIVADA, CD4+ T lymphocytes exposed to HIVADA, HIVBal or HIVLAI, Prob 500 μM, 10Panx1 200 μM, scrPanx1 200 μM, La3+ 200 μM, Cx43E2 1:500, siRNA 10 nM
Protocol: Isolation of human PBMCs and CD4+ T lymphocytes. Anticoagulated blood was obtained from leukopacks obtained from the New York Blood Center as described before (16). PBMCs were isolated by under-layering with Ficoll-Paque (Amersham Bioscience, Uppsala, Sweden) according to the procedure described by the manufacturer. Purified PBMC used in these studies were ˜10% monocytes and ˜90% lymphocytes and other hematopoietic cells, as determined by incubation with premixed human CD45 and CD14 monoclonal antibodies conjugated to FITC and PE, respectively (1:50, Caltag Laboratories, Burlingame, Calif.), followed by fluorescence-activated cell sorter analysis (FACS) as we previously described (17). To obtain a pure population of CD4+ T lymphocytes, monocytes were removed from PBMCs by using CD14 coupled magnetic beads and subsequently CD4+ T lymphocytes were isolated with CD4 coupled magnetic beads (Stem Cell Technologies, Vancouver, BC, Canada).
HIV-infection and quantification of replication. Cell-free viral inocula were obtained from the National Institutes of Health AIDS Research and Reference Reagent Program. Three isolates were used: HIVADA, and HIVBal, two R5 isolates and HIVLAI, an X4 isolate, PBMCs and purified CD4+ T lymphocytes were isolated and activated with phytohemagglutinin (PHA; 5 μg/ml) plus interleukin (IL-2; 5%) in RPMI 1640 for 48 h in polypropylene tubes at a density of 2×10^6 […] PBMCs and CD4+ T lymphocytes were then infected by incubation for 24 h with viral stocks of HIVADA (20 ng p24/ml/1×10^6 cells), HIVLAI (20 ng p24/ml/1×10^6 cells) or HIVBal (0.001 MOI), washed thoroughly, resuspended in fresh medium, and maintained in polypropylene tubes. Uninfected control cells were activated with PHA plus IL-2 for 48 h, washed, and maintained in polypropylene tubes in fresh media without any virus. To determine the levels of HIV infection, the amount of HIV-p24 released into the medium was determined by ELISA (PerkinElmer, Boston, Mass.)
(§2) Dye uptake and time lapse fluorescence imaging. To characterize the functional state of Panx1 hemichannels, dye uptake experiments using ethidium (Etd) bromide were performed as previously described (18, 19). Cells were washed twice in Hank's balanced salt solution and then exposed to Locke's solution (containing: 154 mM NaCl, 5.4 mM KCl, 2.3 mM CaCl2, 5 mM HEPES and pH 7.4) with 5 μM Etd and time lapse microscopy was performed. Phase-contrast and fluorescence microscopy with time-lapse imaging were used to record cell appearance and fluorescence intensity changes in each condition. Fluorescence was recorded every 30 s. The NIH ImageJ program was used for off-line image analysis and fluorescence quantification. For data representation and calculation of Etd uptake slopes, the average of two independent background fluorescence intensity measurements (FB, expressed as arbitrary units, AU) was subtracted from fluorescence intensity′ in each cell (F1). Results of this calculation (F1-FB), for at least 20 cells, were averaged and plotted against time (expressed in minutes). Slopes were calculated using Microsoft Excel software and expressed as AU/min. Microscope and camera settings remained the same in all experiments. Dead cells were clearly identified during the time lapse microscopy due to their non specific Etd uptake (not inhibited by hemichannel blockers) and were not quantified.

[5] = molecular target: T1, Panx1 hemichannels; assay: HIV-induced Etd uptake in CD4+ T lymphocytes by flow cytometry (FACS); assay type: cell-based; parameters: endogenous in cells; host or cells: primary human PBMCs and purified CD4+ T lymphocytes from leukopacks (New York Blood Center); conditions: HIVADA, 5 min and 72 h
Protocol: Flow cytometry. To measure Etd uptake in CD4+ T cell populations FACS analysis was performed of cells under control conditions or after HIV exposure at several time points. Etd uptake experiments were performed in CD4+ lymphocytes (3-5×10^5), and after the respective time of Etd uptake, cells were fixed with 2% paraformaldehyde for 30 min at room temperature, incubated with 1% BSA in PBS for 30 min and stained with CD4 antibody for 30 min at 4° C. For analyses of Etd positive populations, 10,000 events were acquired on a BD FACS Canto II and analyzed using FlowJo (Ashland, Oreg.) software as we previously described (17, 20).

[6] = molecular target: T1, Panx1 hemichannels; assay: Etd uptake in CD4+ T lymphocytes induced by chemokines or gp120; assay type: cell-based; parameters: endogenous in cells; host or cells: primary human PBMCs and purified CD4+ T lymphocytes from leukopacks (New York Blood Center); conditions: gp120 1 μg/ml
Protocol: as §2

[7] = test system: HIV; assay: HIV replication in macrophage cultures, strain not named; assay type: cell-based; conditions: apyrase data; concentration not given
Protocol: as §1

T1 sequence (Q96RD7 whole entry): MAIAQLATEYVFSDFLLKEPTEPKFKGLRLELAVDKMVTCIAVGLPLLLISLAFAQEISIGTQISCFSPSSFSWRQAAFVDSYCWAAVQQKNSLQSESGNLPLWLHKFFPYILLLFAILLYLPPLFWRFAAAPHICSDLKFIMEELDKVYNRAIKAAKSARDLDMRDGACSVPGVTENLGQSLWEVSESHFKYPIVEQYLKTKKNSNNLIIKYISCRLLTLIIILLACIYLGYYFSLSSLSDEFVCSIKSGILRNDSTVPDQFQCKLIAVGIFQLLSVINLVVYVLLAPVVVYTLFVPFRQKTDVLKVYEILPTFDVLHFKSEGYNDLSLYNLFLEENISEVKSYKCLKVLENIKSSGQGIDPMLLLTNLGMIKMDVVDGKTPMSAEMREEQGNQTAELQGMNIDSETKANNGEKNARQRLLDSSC

COc1ccc(CC(=O)NC(N=C(NC#N)Nc2cccc3ncccc23)C(C)(C)C)cc1OC (stereo not drawn) [A-740003, N-[1-[[(Cyanoamino)(5-quinolinylamino)methylene]amino]-2,2-dimethylpropyl]-3,4-dimethoxybenzeneacetamide]
inhibition at 100 µM ([1]; read-out: inhibition of HIV p24 production relative to HIV plus the vehicle DMSO): 70 to 91% | reduction in viral entry (percentage of cells with viral entry) relative to HIV only [2]: did not change | cell viability (live/dead assay) [3]: did not alter cell viability; also recorded: None of the antagonist caused any decrease in cell viability

[La+3] [La^3+, Lanthanum]
Etd uptake (rate) induced by the virus [4]: did not cause changes | Etd uptake (rate) induced by the virus ([4]; listed as Lanthanum): did not affect

CNc1ncnc2c1ncn2[C@H]1C[C@H](OP(=O)([O-])[O-])[C@@H](COP(=O)([O-])[O-])O1.[Na+].[Na+].[Na+].[Na+] [MRS 2179, 2′-deoxy-N6-methyladenosine 3′,5′-bisphosphate tetrasodium salt]
inhibition at 100 µM ([1]; 100 μM, 3 independent donors, NF 279 on days 2-7 post inoculation, read-out: inhibition of HIV p24 production as compared to HIV infected cultures without the inhibitors): 60 to 70% | reduction in viral entry (percentage of cells with viral entry) relative to HIV only [2]: did not change | cell viability (live/dead assay) [3]: did not alter cell viability; also recorded: None of the antagonist caused any decrease in cell viability

O=C(Nc1ccc(C(=O)Nc2ccc(C(=O)Nc3ccc(S(=O)(=O)[O-])c4cc(S(=O)(=O)[O-])cc(S(=O)(=O)[O-])c34)cc2)cc1)Nc1ccc(C(=O)Nc2ccc(C(=O)Nc3ccc(S(=O)(=O)[O-])c4cc(S(=O)(=O)[O-])cc(S(=O)(=O)[O-])c34)cc2)cc1.[Na+].[Na+].[Na+].[Na+].[Na+].[Na+] [NF 279, 8,8′-[Carbonylbis(imino-4,1-phenylenecarbonylimino-4,1-phenylenecarbonylimino)]bis-1,3,5-naphthalenetrisulfonic acid hexasodium salt]
inhibition of HIV p24 production as compared to HIV infected cultures without the inhibitors ([1]; 100 μM, 3 independent donors, NF 279 on days 2-7 post inoculation): 90-98% | reduction in viral entry (percentage of cells with viral entry) relative to HIV only [2]: 98% | cell viability (live/dead assay) [3]: did not alter cell viability; also recorded: None of the antagonist caused any decrease in cell viability

Cc1ccc(-c2ccc3c(c2)C=C(C(=O)Nc2ccc(C[N+](C)(C)C4CCOCC4)cc2)CCC3)cc1.[Cl-] [TAK-779]
Etd uptake induced by R5 viruses ([4]; CD4+ T lymphocytes, HIVADA and HIVBal, TAK-779 100 ng/ml): reduced

CCCN(CCC)S(=O)(=O)c1ccc(C(=O)O)cc1 [probenecid]
Etd uptake (rate) induced by the virus [4]: completely blocked; also recorded: completely reduced | Etd uptake induced by the virus, analyzed by FACS [5]: reduced Etd uptake | Etd uptake induced by the virus, analyzed by FACS ([5]; listed as Probenecid): reduced to control conditions (100%) | gp120-induced Etd uptake, in presence of blockers ([6]; 5 min): inhibited

Cc1ccc(C(=O)Nc2ccc(S(=O)(=O)O)c3cc(S(=O)(=O)O)cc(S(=O)(=O)O)c23)cc1NC(=O)c1cccc(NC(=O)Nc2cccc(C(=O)Nc3cc(C(=O)Nc4ccc(S(=O)(=O)O)c5cc(S(=O)(=O)O)cc(S(=O)(=O)O)c45)ccc3C)c2)c1 [suramin]
inhibition of HIVADA replication ([1]; suramin, every time point tested, N=3 donors): 100% | cell viability (live/dead assay) [3]: None of the antagonist caused any decrease in cell viability; also recorded: without altering cell viability

RANTES/CCL5: a physiological ligand for CCR5
Etd uptake after single addition of chemokine or gp120 ([6]; chemokines 100 ng/ml, time course): fast and extremely transient increase (only 5 min)

apyrase
reduction in HIV entry in macrophages ([2]; apyrase data, concentration not given): no reduction | reduction in HIV replication in macrophages [7]: no reduction

Source: US9540646B2, “Cellular targets for HIV infection” (priority 2012, dated 2017)
